Experimental data as given in the NIST ThermoML archive (doi:10.1021/je900596d).
± gives the expanded uncertainty stated by the source.

Details: Liquid; for vapor or sublimation pressure: Closed cell (Static) method; for mass density: 358 K, Vibrating tube method

FC(F)=C(F)C(F)(F)F [hexafluoropropene]
Details | mass density [kg/m3] | vapor or sublimation pressure [kPa]
357.06 K | – | 3017.5 ± 5.3
357.27 K | – | 3031 ± 5
357.47 K | – | 3044.2 ± 5.4
357.56 K | – | 3050.4 ± 5.4
3077.4 kPa | 720.16 ± 5.3 | –
3079.5 kPa | 727.89 ± 4.8 | –
3081.5 kPa | 734.5 ± 4.5 | –
3083.8 kPa | 736.72 ± 4.4 | –
3086 kPa | 740.82 ± 4.3 | –
3088.2 kPa | 744.57 ± 4.6 | –
3109.3 kPa | 770.42 ± 3.6 | –
3111.5 kPa | 772.98 ± 3.5 | –
3116.7 kPa | 777.53 ± 3.4 | –
3119.3 kPa | 780.08 ± 3.2 | –
3122.7 kPa | 783.21 ± 3.2 | –
3129.1 kPa | 787.86 ± 3 | –
3135.8 kPa | 792.11 ± 2.7 | –
3142.4 kPa | 796.64 ± 2.7 | –
3148.6 kPa | 799.79 ± 2.5 | –
3156.4 kPa | 804.75 ± 2.4 | –
3177.8 kPa | 815.22 ± 2.1 | –
3185.3 kPa | 818.23 ± 2 | –
3192.2 kPa | 821.21 ± 2 | –
3200.1 kPa | 824.15 ± 1.9 | –
3210.8 kPa | 828.42 ± 1.9 | –
3221.1 kPa | 831.96 ± 1.7 | –
3231.6 kPa | 835.41 ± 1.7 | –
3241.7 kPa | 838.72 ± 1.7 | –
3252.2 kPa | 841.71 ± 1.6 | –
3262.8 kPa | 844.89 ± 1.6 | –
3273.9 kPa | 847.83 ± 1.6 | –
3295.3 kPa | 853.38 ± 1.5 | –
3306 kPa | 855.88 ± 1.5 | –
3329 kPa | 860.99 ± 1.4 | –
3350.7 kPa | 865.7 ± 1.4 | –
3372.9 kPa | 869.87 ± 1.4 | –
3394.9 kPa | 874.14 ± 1.3 | –
3416.1 kPa | 877.89 ± 1.3 | –
3438.3 kPa | 881.69 ± 1.3 | –
3460.7 kPa | 885.32 ± 1.3 | –
3482.9 kPa | 888.76 ± 1.2 | –
3504.8 kPa | 892.14 ± 1.2 | –
3528.7 kPa | 895.48 ± 1.2 | –
3550.1 kPa | 898.37 ± 1.2 | –
3572 kPa | 901.37 ± 1.2 | –
3593.3 kPa | 903.96 ± 1.2 | –
3626 kPa | 907.95 ± 1.2 | –
3637.5 kPa | 909.42 ± 1.2 | –
3650.1 kPa | 910.79 ± 1.2 | –
3672 kPa | 913.13 ± 1.2 | –
3692.4 kPa | 915.48 ± 1.2 | –
3737.5 kPa | 920.3 ± 1.1 | –
3781.6 kPa | 924.71 ± 1.1 | –
3805.3 kPa | 927.04 ± 1.1 | –
3827.1 kPa | 929.16 ± 1.1 | –
3849.3 kPa | 931.26 ± 1.1 | –
3870.8 kPa | 933.33 ± 1.1 | –
3892.8 kPa | 935.23 ± 1.1 | –
3914.1 kPa | 937.13 ± 1.1 | –
3959.7 kPa | 940.96 ± 1.1 | –
3983.8 kPa | 943.01 ± 1.1 | –
4012.7 kPa | 945.18 ± 1.1 | –
4046.1 kPa | 947.77 ± 1.1 | –
4078.7 kPa | 950.34 ± 1.1 | –
4111.6 kPa | 952.85 ± 1.1 | –
4143.9 kPa | 955.16 ± 1.1 | –
4176.6 kPa | 957.49 ± 1.1 | –
